Drawing on PubChem BioAssay (NCI), this text covers GI50 and TGI for eight molecules.

Common to all, as to assay: NCI-60 cell line screen, 48 h
The subject of test [1] is 786-0 renal.
Test [2] deals with COLO 205 colon.
Test [3] concerns HCT-15 colon.
Test [4] deals with HS 578T breast.
In test [5] the test system is HT29 colon.
The test system of test [6] is K-562 leukemia.
Test [7] relates to M14 melanoma.
Test [8] deals with SK-OV-3 ovarian.
Test [9] deals with SN12C renal.
Test [10] relates to SNB-75 CNS.

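1) Cells in 96-well plates. 2) Compound, 48 h, 5 concentrations. 3) Linear interpolation between surrounding doses. 4) Unreached endpoint = highest concentration. The concentration for 50% growth inhibition is given as GI50. The concentration for full growth arrest is given as TGI.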

Consider `CCc1ccc(Oc2c(-c3ccc(OCCc4cccc(C(F)(F)F)c4)cc3O)n[nH]c2C(F)(F)F)cc1`, for which the GI50 in test [1] is 6380 nM; in test [2], 8720 nM; in [3], 1960 nM; in test [4], 6.04 µM; in test [5], 8130 nM; in [6] it was 1800 nM. The GI50 in test [7] is 5230 nM; in test [8], 6570 nM; in test [9], 2400 nM; in [10] it was 5820 nM. The TGI in test [1] was 12.9 µM; in test [2], 15.8 µM; in [3] it was 6.89 µM; in test [4] it was 15.4 µM; in test [5], 14.9 µM; in test [6] it was 6.1 µM. Besides, the TGI in [7] turned out to be 11900 nM; in test [8], 12.9 µM; in test [9], 8.35 µM; in test [10], 12100 nM.

Take `CS(=O)(=O)Nc1cc(-c2ccc3ncc(C#N)c(Nc4ccc(F)c(Cl)c4)c3c2)cnc1Cl`: the GI50 in test [1] is 256 nM; in test [2] it was 232 nM; in [3], 167 nM; in test [4] it was 0.131 µM; in [5] it was 290 nM; in [6], 201 nM. In addition, the GI50 in test [7] was 193 nM; in test [8], 194 nM; in [9] it was 133 nM; in test [10], 25.1 nM. Moreover, the TGI in test [2] is 0.943 µM; in test [3], 4.91 µM; in test [4], 0.798 µM; in test [5] it was 2.3 µM; in test [6], greater than 100 µM; in test [7] it was 1920 nM. Moreover, the TGI was 0.731 µM in test [8], greater than 100 µM in test [9] and 507 nM in [10].

As for `COc1cccc2nc(Nc3cccc(NC(=O)c4ccc(N5CCN(C)CC5)c(C(F)(F)F)c4)c3)ccc12`, the GI50 in test [1] was 923 nM; in test [2] it was 909 nM; in [3], 937 nM; in [4] it was 1.07 µM; in [5], 712 nM; in test [6], 1100 nM. Besides, the GI50 is 899 nM in test [7], 1730 nM in [8], 1700 nM in test [9] and 695 nM in test [10]. Also, the TGI was 1.78 µM in test [1]; 1.83 µM in [2]; 2.03 µM in test [3]; 2.93 µM in test [4]; 1.61 µM in test [5]; 3.68 µM in [6]. Besides, the TGI in [7] was 1950 nM; in test [8] it was 6.11 µM; in [9], 7.47 µM; in [10], 1680 nM.

`CC(C)C[C@H](NC(=O)[C@@H](Cc1ccccc1)n1ccc(Nc2ccccc2)cc1=O)B(O)O`: the GI50 was 582 nM in test [1]; 545 nM in test [2]; 1110 nM in test [3]; 0.361 µM in [4]; 342 nM in test [5]; 477 nM in test [6]. The GI50 in [7] is 278 nM; in test [8], 653 nM; in test [9], 730 nM; in test [10], 300 nM. In addition, the TGI is 59 µM in [1]; 13.1 µM in test [2]; 17 µM in test [3]; 7.06 µM in [4]; 15.5 µM in test [5]; greater than 100 µM in [6]. The TGI in [7] is 1910 nM; in [8] it was 18.8 µM; in [9], 6.94 µM; in [10], 1830 nM.

Consider `COC(=O)C1c2cc3c(c(O)c2CCC1(C)O)C(=O)c1c(O)cc2c(c1C3=O)OC1OC2(C)C(O)C(N(C)C)C1O` (centres undefined), for which the TGI in test [1] came out at 2.63 µM; in test [2], 1.73 µM; in test [3], 1.7 µM; in test [4] it was 3.77 µM; in test [5], 1.29 µM; in test [6] it was 1.03 µM. In addition, the TGI in test [7] worked out at 5330 nM; in test [8], 15 µM; in [9], 3.84 µM; in test [10] it was 1370 nM.

For the molecule `CNC(=O)/C=C/C1=CN2C(=O)c3ccc(C)c(O)c3NC(OC)C2C1` (centres undefined), the TGI in test [1] is 9.15 µM; in [2], less than 0.0202 µM; in test [3], 4.48 µM; in [4] it was less than 0.0264 µM; in test [5], 3.29 µM; in test [6] it was greater than 100 µM. For the same molecule, the TGI in test [7] is 19.1 nM; in test [8], greater than 8.66 µM; in [9] it was 12.1 µM; in [10] it was less than 26.9 nM.

With `O=S(=O)(NCCNc1nccc(-c2c(-c3ccc(F)cc3)nc3sccn23)n1)c1ccc(O)cc1`, the GI50 in test [1] was 4260 nM; in [2], 2000 nM; in test [3] it was 5000 nM; in [4], 6.48 µM; in test [5], 2090 nM; in test [6], 2180 nM. Moreover, the GI50 is 3360 nM in test [7], 9170 nM in test [8], 3900 nM in test [9] and 1680 nM in test [10]. In addition, the TGI in [1] is 39.7 µM; in test [2], 14.8 µM; in test [3] it was greater than 100 µM; in test [4], 42.7 µM; in [5], 37.4 µM; in [6], greater than 100 µM. For the same molecule, the TGI worked out at 18100 nM in test [7], 73 µM in [8], 76.6 µM in [9] and 13100 nM in test [10].

As for `CC(C)n1cc(-c2ccc3c(c2)N(C)CC3)c2c(NS(=O)(=O)c3ccn(C)n3)ccnc21`, the GI50 in [1] is 43700 nM; in [2], greater than 100000 nM; in test [3] it was 35900 nM; in test [4], 37 µM; in test [5], 71900 nM; in test [6], 79900 nM. The GI50 was 44500 nM in test [7], greater than 100000 nM in test [8], 91800 nM in [9] and 39900 nM in [10]. Further, the TGI in [1], in [2], in test [3], in test [4], in [5] and in test [6] was greater than 100 µM each time. Also, the TGI is greater than 100000 nM in test [7], greater than 100 µM in test [8], greater than 100 µM in [9] and greater than 100000 nM in test [10].
